This is an account of results in US10376584B2, “Stable pharmaceutical formulations of methylnaltrexone” (Progenics Pharmaceuticals, Inc., priority 2003, dated 2019).

The data set can be described thus: Autoclaving of methylnaltrexone solutions (122° C., 15 lbs. pressure for 20 min), degradation products. Format: physicochemical. The method, then: Applicants have discovered that during the autoclaving process, methylnaltrexone in aqueous solution tends to degrade to a surprising extent. The amount of degradation resulting from simple autoclaving (122° C., 15 lbs. pressure for 20 min.) can be as high as […]. The degradation products are depicted in FIG. 1, and appear to include at least two predominant degradants having relative retention times (RRT) of 0.72 (2.828 minutes) and 0.89 (3.435 minutes) and, with other minor forms as can be observed. The degradant identified by the 0.72 RRT peak appears in small amounts, 0.074, immediately upon dissolving the methylnaltrexone into solution and increases overtime with storage or autoclaving 0.25%. The degradant identified by the 0.89 RRT peak appears only after storage over time or after autoclaving (<0.05% and 0.724%, respectively). Applicants also have discovered that methylnaltrexone is unstable in aqueous solutions when stored at room temperature or even at 4° C. for significant (but commercially necessary) periods of time such as 6 months, 12 months or even two years. Degradation occurs without regard to whether the aqueous solution was previously autoclaved or filter sterilized. It would be desirable to stabilize formulations of methylnaltrexone such that following the autoclaving process or following storage (or both autoclaving and storage), the amount of the total degradation products would be less than 2.0%, 1.5%, 1.0%, 0.5%, 0.25%, and even 0.125%.
The invention provides stable formulations of methylnaltrexone. By stable solutions of methylnaltrexone, it is meant that following autoclaving at 122° C., 15 lbs. pressure for 20 minutes, the methylnaltrexone degradation products resulting from such conditions are not more than 2% of the total methylnaltrexone present in a given solution. […]

As to `C[N@+]1(CC2CC2)CC[C@]23c4c5ccc(O)c4O[C@H]2C(=O)CC[C@@]3(O)[C@H]1C5` [methylnaltrexone], for the setting “buffers in concentrations ranging from 0.25 mM to 25 mM”, the “levels of degradation products after autoclaving with buffering agents” value is reported as “Acceptable levels of degradation products”. Further, the “stability to autoclaving by adjustment of pH alone” value (pH between 4.25 and 6) is given as “not sufficient to produce stable formulations”. In addition, the “pH of the autoclaved sample” value (pH set between 3.0 and 6.0 with pH-adjusting acid or base prior to autoclaving, no buffer) is listed as “about 7.0”.
